Measurements from US10894042B2, “Methods and pharmaceutical compositions for the treatment of cancer” (INSERM (INSTITUT NATIONAL DE LA SANTÉ ET DE LA RECHERCHE …, priority 2014, dated 2021).
Where no end group is shown, it is not given here.

Columns and labels:
[1] = system: human colon cancer cells (LoVo cells); test: Growth of tumors from human colon cancer cell xenografts in nude mice; type: in vivo; settings: for tumor growth versus PBS control mice: LoVo xenograft in nude mice, 100 μg intraperitoneally 2 times/week, 48 days of treatment
Experimental: FIG. 4: Effect of ip inoculation of OxA (▴), Suvorexant (◯) and Almorexant (Δ) on the growth of tumors developed by xenografting human colon cancer cells in nude mice. A. LoVo cells were inoculated in the flank of nude mice at day 0. Mice were injected 2 times/week intraperitoneally with 100 μg of OxA, Suvorexant or Almorexant in 100 μl solutions or with 100 μl of PBS (●) for controls. After 48 days of treatment, mice were sacrificed and tumor volume and weight were then recorded. The development of tumors was followed by caliper measurement. B. treatment (2 injections/week) with various doses of Almorexant (1 mg/kg (□), 2.5 mg/kg (Δ) or 5 mg/kg (◯)) compared to OxA treatment (5 mg/kg, ▴). Control was performed by injection of 100 μl PBS (●).
The inventors investigated the effect of intraperitoneal inoculation of OxA, Suvorexant and Almorexant on the growth of tumors developed by xenografting human colon cancer cells (LoVo cells) in nude mice.

[2] = system: colon adenocarcinoma HT-29 cells; test: Cell growth determination, HT-29 cells; type: cell-based; settings: 48 hr incubation, viable cells counted, OxA 0.1 μM, SB408124 increasing concentrations
Experimental: (§1) FIG. 2: Determination of the inhibition of cellular growth of HEK-OX1R cells and colon adenocarcinoma cells (HT-29) induced by […] of OxA or various concentrations of SB408124 antagonist. HEK-OX1R cells (black column) and HT-29 cells (white column) were incubated with 0.1 μM of OxA and indicated increasing concentration of SB408124, and cells were counted after 48 hr incubation. Results are expressed as the percentage of total viable cells.
(§2) HEK-OX1R cells or colon adenocarcinoma HT-29 cells were seeded, grown and maintained at 37° C. in a humidified 5% CO2/air incubator. After 24 hr culture, cells were treated with or without Orexin-A peptide or SB408124 antagonist, previously dissolved in DMSO, to be tested at the concentration indicated in the figure legends. After 48 hr of treatment, adherent cells were harvested by TriplE (Life Technologies, Saint Aubin, France) and manually counted. Apoptosis was determined using the Guava PCA system and the Guava nexin kit.

[3] = system: HEK-OX1R cells; test: Cell growth determination, HEK-OX1R cells; type: cell-based; settings: 48 hr incubation, viable cells counted, OxA 0.1 μM, SB408124 increasing concentrations
Experimental: as §1, §2

[4] = system: OX1R expressing colon adenocarcinoma cells, HT-29; test: Apoptosis assay (annexin V-PE binding, Guava nexin kit), HT-29 cells; type: cell-based; settings: for apoptosis (annexin V-PE binding): HT-29 cells, 48 h, 1 μM orexin-A or various concentrations of SB408124
Experimental: FIG. 3: Effect of orexin-A and SB408124 antagonist on apoptosis in OX1R expressing colon adenocarcinoma cells, HT-29. HT-29 cells were challenged with 1 μM orexin-A or various concentration of SB408124 for 48 h. Apoptosis was measured by determination of annexin V-PE binding, and results are expressed as the percentage of apoptotic cells. Results are means±SE of three experiments. ***P<0.001.
as §2

[5] = target: T1, OX1R (Homo sapiens, UniProt O43613); test: Ca2+ mobilization assay in HEK-OX1R cells (FluoForte); type: cell-based
T1 construct: HEK cells expressing recombinant native OX1R (HEK-OX1R) cells were seeded in 96-wells plate; expressed in transfected cells; host or cells: HEK cells (HEK-OX1R)
T1 sequence (O43613 1-425): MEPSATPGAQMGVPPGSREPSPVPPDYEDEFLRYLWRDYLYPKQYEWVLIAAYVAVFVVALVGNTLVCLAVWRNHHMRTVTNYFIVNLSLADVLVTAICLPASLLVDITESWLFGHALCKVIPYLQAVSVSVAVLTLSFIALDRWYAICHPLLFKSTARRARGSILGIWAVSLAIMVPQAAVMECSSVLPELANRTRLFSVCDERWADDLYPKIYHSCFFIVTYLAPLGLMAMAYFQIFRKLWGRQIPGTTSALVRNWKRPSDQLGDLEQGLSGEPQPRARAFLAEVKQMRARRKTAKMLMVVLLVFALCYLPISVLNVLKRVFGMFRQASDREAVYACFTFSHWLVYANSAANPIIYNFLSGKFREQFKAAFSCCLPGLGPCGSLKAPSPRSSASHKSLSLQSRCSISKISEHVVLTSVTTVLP
Experimental: FIG. 1: Effect of orexin-A and SB408124 antagonist on Ca2+ mobilization in HEK-OX1R cells. Top, HEK-OX1R cells were incubated with fluorescence probe (FluoForte) for 45 min. at 37° C. according to FluoForte calcium assay kit (Enzo Life Sciences). 1 μM of OxA was added to cells and fluorescence emission was measured on TECAN Infinite 200 fluorospectrophotometer. Bottom, HEK-OX1R cells were incubated with fluorescence probe (FluoForte) for 45 min. at 37° C. and then incubated with 1 μM of SB408124 for 1 h at 37° C. After pre-incubation, 1 μM of OxA was added to cells and fluorescence emission was measured.
HEK cells expressing recombinant native OX1R (HEK-OX1R) cells were seeded in 96-wells plate, grown and maintained at 37° C. in a humidified 5% CO2/air incubator. 80,000 cells/well were incubated with FluoForte probe according to FluoForte calcium assay kit (ENZO life Sciences, Farmingdale, N.Y., USA) for 45 min. at 37° C. and then incubated with or without 1 μM of SB408124 antagonist for 1 h at 37° C. After pre-incubation, 1 μM of OxA was added and fluorescence was determined using TECAN Infinite 200 fluorospectrophotometer.

Molecule	tumor growth versus PBS control mice [1]	tumor growth inhibition, dose dependence ([1]; LoVo xenograft in nude mice, 1, 2.5 or 5 mg/kg, 2 injections/week)	inhibition of cellular growth [2]	inhibition of cellular growth [3]	apoptosis (annexin V-PE binding) [4]	agonist/antagonist character for OX1R-mediated mitochondrial apoptosis ([4]; colon cancer cell line)	agonist/antagonist character for OX1R-mediated calcium mobilization [5]	effect on OxA-induced Ca2+ mobilization ([5]; preincubation with 1 μM SB408124 for 1 h at 37° C., then 1 μM OxA)	Ca2+ mobilization ([5]; 1 μM OxA, fluorescence (FluoForte))
CNC(=O)[C@@H](c1ccccc1)N1CCc2cc(OC)c(OC)cc2[C@@H]1CCc1ccc(C(F)(F)F)cc1 [Almorexant]	significantly smaller tumors	induce in a dose-dependent manner tumor growth inhibition							
Cc1cc(NC(=O)Nc2ccc(N(C)C)cc2)c2cc(F)cc(F)c2n1 [SB408124]			strong inhibition in a dose-dependent manner	strong inhibition in a dose-dependent manner	induce in a dose-dependent manner cell apoptosis	full agonist	full antagonist	totally abolished	
Cc1ccc(-n2nccn2)c(C(=O)N2CCN(c3nc4cc(Cl)ccc4o3)CC[C@H]2C)c1 [Suvorexant]	significantly smaller tumors								
OxA: orexin A, a 33 amino acid neuropeptide, the natural OX1R agonist (QPLPDCCRQKTCSCRLYELLHGAGNHAAGILTL; ends and bridges not checked; cysteine pairing not given here; UniProt O43612 34-66, looked up)	significantly smaller tumors		strong inhibition	strong inhibition	induced an apoptotic effect				large and transient
